Results taken from ChEMBL document CHEMBL4507268 (2021).

What was measured:
Conditions in all cases: Compound concentration 1.0 uM
[1] = target: T1, Myosin light chain kinase (Homo sapiens) (UniProt Q32MK0)
T1 sequence (whole entry): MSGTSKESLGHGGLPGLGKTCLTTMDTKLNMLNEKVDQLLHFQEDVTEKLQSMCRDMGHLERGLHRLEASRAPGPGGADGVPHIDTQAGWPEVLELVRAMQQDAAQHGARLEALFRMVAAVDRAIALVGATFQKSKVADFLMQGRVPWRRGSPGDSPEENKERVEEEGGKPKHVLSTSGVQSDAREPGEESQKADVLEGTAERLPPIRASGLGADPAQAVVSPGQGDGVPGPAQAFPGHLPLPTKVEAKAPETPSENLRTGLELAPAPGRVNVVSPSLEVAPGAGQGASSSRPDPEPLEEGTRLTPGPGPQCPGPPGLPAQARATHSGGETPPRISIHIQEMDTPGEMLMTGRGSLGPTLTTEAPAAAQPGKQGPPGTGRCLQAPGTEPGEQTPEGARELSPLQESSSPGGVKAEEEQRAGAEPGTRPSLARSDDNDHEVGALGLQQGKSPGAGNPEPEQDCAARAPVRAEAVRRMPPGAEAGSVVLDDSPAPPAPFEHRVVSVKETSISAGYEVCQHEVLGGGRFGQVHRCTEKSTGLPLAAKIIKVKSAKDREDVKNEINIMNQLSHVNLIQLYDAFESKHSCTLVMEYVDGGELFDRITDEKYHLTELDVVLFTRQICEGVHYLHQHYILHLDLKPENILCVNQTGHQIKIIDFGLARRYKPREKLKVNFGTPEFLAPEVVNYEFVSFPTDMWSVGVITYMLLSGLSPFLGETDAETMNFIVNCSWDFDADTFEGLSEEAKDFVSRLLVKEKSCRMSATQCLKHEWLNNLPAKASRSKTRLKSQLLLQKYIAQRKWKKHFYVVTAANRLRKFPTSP

[2] = target: Serine/threonine-protein kinase Chk2 (Homo sapiens) (UniProt O96017)
Chain of Serine/threonine-protein kinase Chk2 (Homo sapiens) (O96017 whole entry): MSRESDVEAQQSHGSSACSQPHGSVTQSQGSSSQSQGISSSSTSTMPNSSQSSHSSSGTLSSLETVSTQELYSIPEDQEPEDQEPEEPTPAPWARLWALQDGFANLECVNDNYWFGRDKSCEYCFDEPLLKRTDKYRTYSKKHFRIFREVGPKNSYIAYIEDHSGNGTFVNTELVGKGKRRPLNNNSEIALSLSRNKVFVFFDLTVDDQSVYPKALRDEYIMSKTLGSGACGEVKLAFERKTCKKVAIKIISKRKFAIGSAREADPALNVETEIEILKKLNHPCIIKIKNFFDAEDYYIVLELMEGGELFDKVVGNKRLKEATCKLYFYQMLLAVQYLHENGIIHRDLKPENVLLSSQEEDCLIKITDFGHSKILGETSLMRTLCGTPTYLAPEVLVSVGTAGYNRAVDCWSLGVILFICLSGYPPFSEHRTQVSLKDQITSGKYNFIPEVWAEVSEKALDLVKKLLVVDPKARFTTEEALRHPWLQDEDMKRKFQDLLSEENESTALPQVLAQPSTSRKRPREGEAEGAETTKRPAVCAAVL

[3] = target: T2, NUAK family SNF1-like kinase 2 (Homo sapiens) (UniProt Q9H093)
T2 sequence (whole entry): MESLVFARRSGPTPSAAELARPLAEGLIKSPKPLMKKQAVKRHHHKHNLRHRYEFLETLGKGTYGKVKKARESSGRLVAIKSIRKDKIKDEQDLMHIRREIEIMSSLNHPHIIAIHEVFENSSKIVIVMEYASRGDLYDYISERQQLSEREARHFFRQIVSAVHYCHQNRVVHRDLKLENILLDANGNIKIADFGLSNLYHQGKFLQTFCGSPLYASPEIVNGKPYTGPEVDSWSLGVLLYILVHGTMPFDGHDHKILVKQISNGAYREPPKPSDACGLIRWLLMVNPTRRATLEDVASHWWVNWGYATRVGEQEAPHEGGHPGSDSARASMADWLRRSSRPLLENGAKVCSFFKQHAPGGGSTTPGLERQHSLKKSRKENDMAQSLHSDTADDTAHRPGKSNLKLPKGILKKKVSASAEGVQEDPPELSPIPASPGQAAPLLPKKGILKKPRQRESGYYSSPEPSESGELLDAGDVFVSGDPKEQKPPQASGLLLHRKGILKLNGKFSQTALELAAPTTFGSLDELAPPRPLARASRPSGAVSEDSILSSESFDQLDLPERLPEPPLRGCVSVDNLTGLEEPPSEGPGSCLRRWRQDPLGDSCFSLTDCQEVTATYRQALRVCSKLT

[4] = target: T3, Ephrin type-B receptor 1 (Homo sapiens) (UniProt P54762)
T3 sequence (whole entry): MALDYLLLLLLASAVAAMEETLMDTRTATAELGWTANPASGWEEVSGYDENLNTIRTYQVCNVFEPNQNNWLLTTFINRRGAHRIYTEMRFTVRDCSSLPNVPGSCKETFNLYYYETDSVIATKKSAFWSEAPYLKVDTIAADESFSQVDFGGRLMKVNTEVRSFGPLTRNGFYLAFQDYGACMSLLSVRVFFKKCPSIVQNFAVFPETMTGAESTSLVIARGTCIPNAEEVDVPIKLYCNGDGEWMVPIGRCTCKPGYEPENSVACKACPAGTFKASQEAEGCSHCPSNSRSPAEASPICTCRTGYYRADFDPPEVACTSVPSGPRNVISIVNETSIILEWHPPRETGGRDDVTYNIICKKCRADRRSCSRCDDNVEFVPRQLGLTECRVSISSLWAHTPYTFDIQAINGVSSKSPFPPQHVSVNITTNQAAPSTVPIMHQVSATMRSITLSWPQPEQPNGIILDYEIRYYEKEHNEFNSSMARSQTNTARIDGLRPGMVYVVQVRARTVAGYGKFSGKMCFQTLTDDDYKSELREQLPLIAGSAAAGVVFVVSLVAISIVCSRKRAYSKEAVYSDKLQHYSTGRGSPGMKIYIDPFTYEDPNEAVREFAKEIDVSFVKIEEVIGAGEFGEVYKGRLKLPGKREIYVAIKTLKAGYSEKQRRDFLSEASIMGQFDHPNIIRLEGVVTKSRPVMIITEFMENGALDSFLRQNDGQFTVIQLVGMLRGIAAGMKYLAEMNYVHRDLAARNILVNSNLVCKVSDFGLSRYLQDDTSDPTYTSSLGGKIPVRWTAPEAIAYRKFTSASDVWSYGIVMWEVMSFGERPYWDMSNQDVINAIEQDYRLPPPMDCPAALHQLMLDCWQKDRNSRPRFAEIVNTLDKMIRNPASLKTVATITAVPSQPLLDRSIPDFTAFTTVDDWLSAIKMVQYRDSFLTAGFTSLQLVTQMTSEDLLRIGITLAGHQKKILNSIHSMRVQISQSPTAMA

Measured: % residual kinase activity

CN1CCN(c2cnc3c(C4CCN(C(=O)c5ccc(OC(F)(F)F)cc5N)CC4)ncnc3c2)CC1 [BAY-885]
inactive: [1] 107% | [2] 92% | [3] 111% | [4] 105%
